What is called IC50 is the concentration that gives 50% inhibition. The low end stands for greater potency, the high end for weaker potency.

SMILES strings stand for the structures. Active and inactive are the calls of the source. No cut-off for these calls is given here.

The results in this text go back to ChEMBL document CHEMBL3612052, “Identification of amino acid appended acridines as potential leads to anti-cancer drugs” (Bioorg Med Chem Lett, 2015).

Test [1] relates to C6. Briefly: Antiproliferative activity against rat C6 cells assessed as reduction in cell number at 10 to 20 uM by DAPI staining-based confocal microscopic analysis. The test is classed as functional.
For test [2], the system named is C6. Briefly: Cell cycle arrest in rat C6 cells assessed as decrease in cell number in G2/M phase at 10 uM after 36 hrs by propidium iodide staining-based flow cytometric analysis relative to control. The test is classed as functional.
The subject of test [3] is C6. Briefly: Cell cycle arrest in rat C6 cells assessed as decrease in cell number in S phase at 10 uM after 36 hrs by propidium iodide staining-based flow cytometric analysis relative to control. The class given is functional. (Flow cytometry measures light scatter and fluorescence of single cells or particles in a stream.)
The subject of test [4] is C6. Briefly: Antiproliferative activity against rat C6 cells assessed as appearance of small cell body at 10 to 20 uM by DAPI staining-based confocal microscopic analysis. The class given is functional.
Test [5] concerns C6. Briefly: Antiproliferative activity against rat C6 cells after 72 hrs by MTT assay. The class given is functional, cell-based. The following applies: C6, 72 h. A general note: Tetrazolium assays rely on reduction of a dye to a coloured formazan, in cell work by metabolically active cells.
The test system of test [6] is C6. Briefly: Downregulation of GFAP expression in rat C6 cells by DAPI staining-based confocal microscopic analysis. The class given is functional, cell-based.
For test [7], the system named is C6. Briefly: Antiproliferative activity against rat C6 cells at 10 uM by phase contrast microscopic analysis relative to control. The test is classed as functional, cell-based.
Test [8] relates to C6. Briefly: Induction of senescence in rat C6 cells assessed as upregulation of HSP70 expression at 10 ug/ml by DAPI staining-based confocal microscopic analysis. The test is classed as functional, cell-based.
Test [9] concerns C6. Briefly: Induction of senescence in rat C6 cells assessed as translocation of mortalin from perinuclear region to pancytoplasmic region by DAPI staining-based confocal microscopic analysis. The class given is functional, cell-based.
For test [10], the system named is C6. Briefly: Cell cycle arrest in rat C6 cells assessed as accumulation at G0/G1 phase at 10 uM after 36 hrs by propidium iodide staining-based flow cytometric analysis. The class given is functional.
Test [11] relates to C6. Briefly: Antiproliferative activity against rat C6 cells assessed as appearance of small cell body at 20 uM by alpha-tubulin immunostaining-based phase contrast microscopic analysis. The class given is functional.
Test [12] concerns C6. Briefly: Antiproliferative activity against rat C6 cells assessed as appearance of differentiated morphology with long stellate process at 20 uM by alpha-tubulin immunostaining-based phase contrast microscopic analysis. The test is classed as functional, cell-based.
The test system of test [13] is C6. Briefly: Antiproliferative activity against rat C6 cells assessed as reduction in cell number at 20 uM by alpha-tubulin immunostaining-based phase contrast microscopic analysis. The test is classed as functional.
The test system of test [14] is C6. Briefly: Induction of senescence in rat C6 cells assessed as upregulation of mortalin expression in nucleus by DAPI staining-based confocal microscopic analysis. The test is classed as functional, cell-based.
For test [15], the system named is C6. Briefly: Antiproliferative activity against rat C6 cells assessed as appearance of differentiated morphology with long stellate process at 10 to 20 uM by DAPI staining-based confocal microscopic analysis. The class given is functional, cell-based.
In test [16] the test system is C6. Briefly: Cell cycle arrest in rat C6 cells assessed as accumulation at G0/G1 phase at 10 uM after 36 hrs by propidium iodide staining-based flow cytometric analysis relative to control. The test is classed as functional.

For the compound `COC(=O)CNC(=O)[C@H](Cc1ccc(O)cc1)NC(=O)c1cccc2c(=O)c3ccccc3[nH]c12`, the outcome with C6 [1], in the test on C6 [2], with C6 [3], with C6 [4], in the test on C6 [6] and in the test with C6 [7] was Active. Also, the outcome with C6 [8], in the test with C6 [9], with C6 [10], with C6 [11], in the test with C6 [12] and in the test with C6 [13] was Active. Besides, the outcome in the test on C6 [14], in the test on C6 [15] and in the test on C6 [16] was Active. In the test on C6 [5], it took 14 µM to reach half-maximal inhibition (IC50).
On to `COC(=O)[C@H](Cc1ccc(O)cc1)NC(=O)c1cccc2c(=O)c3ccccc3[nH]c12`, for which the IC50 in the test with C6 [5] is 14 µM. Moreover, the outcome with C6 [10] was Active.
For `O=C(N[C@@H](Cc1ccc(O)cc1)C(=O)O)c1cccc2c(=O)c3ccccc3[nH]c12`, in that order: 14 µM and “Active”.
In the test on C6 [5], `COC(=O)[C@@H](NC(=O)c1cccc2c(=O)c3ccccc3[nH]c12)C(C)C` yielded a half-maximal inhibitory concentration (IC50) of 14 µM. For the same compound, the outcome in the test with C6 [10] was Active.
Regarding `O=C(O)CNC(=O)[C@@H]1CCCN1C(=O)[C@H](Cc1ccc(O)cc1)NC(=O)c1cccc2c(=O)c3ccccc3[nH]c12`, the outcome with C6 [1], with C6 [2], in the test with C6 [3], in the test on C6 [4], with C6 [6] and in the test on C6 [7] was Active. The result in the test with C6 [8], with C6 [9], in the test with C6 [10], with C6 [11], in the test with C6 [12] and with C6 [13] was Active. Further, the outcome in the test with C6 [14], in the test on C6 [15] and in the test with C6 [16] was Active. In addition, inhibition with C6 [5] was half-maximal at 14 µM (IC50).
For the compound `O=C(N[C@@H](Cc1ccc(O)cc1)C(=O)NCC(=O)N1CCC[C@H]1C(=O)O)c1cccc2c(=O)c3ccccc3[nH]c12`, the result in the test on C6 [1], in the test on C6 [2], in the test with C6 [3], with C6 [4], in the test with C6 [6] and in the test on C6 [7] was Active. Moreover, the result in the test on C6 [8], in the test on C6 [9], with C6 [10], in the test with C6 [11], with C6 [12] and with C6 [13] was Active. Further, the result in the test on C6 [14], with C6 [15] and with C6 [16] was Active. In the test with C6 [5], the midpoint of inhibition, the IC50, lay at 14 µM.
